# Test results published in patent US9040538B2, “Pyrimidines as novel therapeutic agents” (Universite Laval, priority 2009, dated 2015).
# Experiments:
# [1] = test system: mice subjected to the Minimal Clonic Seizure model; assay: Minimal Clonic Seizure test (psychomotor seizure model of partial epilepsy, 6 Hz); type: in vivo; conditions: 100 mg/kg intraperitoneally, 32 mA, 3 seconds
# Protocol: Adult mice are pretreated with 100 mg/kg of test compound, acutely administered intraperitoneally. At varying times (15, 30, 60, 120 and 240 minutes post-treatment), animals are challenged with sufficient current (32 mA, 6 Hz, for 3 seconds) delivered through corneal electrodes to elicit a psychomotor seizure. Untreated mice will display seizures characterized by a minimal clonic phase followed by stereotyped, automatistic behaviors similar to the aura of human patients with partial seizures. Animals not displaying this behavior are considered protected (Barton et al., Epilepsy Res. 2001; 47(3):217-27). Results are expressed as the number of animal protected out of the number of animal tested over time.
# [2] = test system: rats rendered neuropathic via the SNI Model; assay: Analgesic effect in spared nerve injury (SNI) model of neuropathic pain; type: in vivo, Sprague-Dawley rats; conditions: mean ± standard error of the mean
# Protocol: (§1) Adult, male Sprague-Dawley rats were obtained from Charles River Laboratories (Wilmington, Mass.) and housed under standard conditions at the Institut Armand-Frappier (Laval, QC). Food and water were provided to experimental animals ad libitum, and rats weighed 175-200 grams at the time of assessment.
# (§2) Compounds were prepared for intraperitoneal administration by dissolving them in a vehicle of hydroxypropyl methylcellulose (Sigma, St-Louis, Mo.); total volume of solution administered to rats was 10 ml/kg.
# Neuropathic pain was induced in rats via spared nerve injury (SNI) of the left sciatic nerve in accordance with the procedure described by Decosterd & Woolf (Pain 2000; 87(2):149-58). Briefly, under isoflurane anesthesia, the sciatic nerve was exposed by dissection at the level of lower thigh, and a lesion of two of the three terminal branches of the nerve (tibial and common peroneal nerves) were performed leaving the remaining sural nerve intact. The incision was closed-up using simple suturing, and the rats allowed to recover.
# (§3) After approximately two weeks, a stable allodynia to blunt mechanical stimuli was identified in the hind paw ipsilateral to the SNI or CCI, manifested as a reduction of 50% withdrawal threshold, and identified using the Von Frey technique, as described by Chaplan et al. (J. Neurosci. Methods 1994; 53(1):55-63), or the Hargreaves method, as described by Hargreaves et al. (Pain 1988; 32(1):77-88). Rats were considered to be fully neuropathic upon displaying a 50% withdrawal threshold of ≦3.5 grams consistently over the course of 72 hours.
# (§4) Compounds were administered to neuropathic rats via acute local delivery in the intraperitoneal space or by oral gavage.
# [3] = test system: rats rendered neuropathic via the CCI model; assay: Analgesic effect in chronic constriction injury (CCI) model of neuropathic pain; type: in vivo, Sprague-Dawley rats; conditions: mean ± standard error of the mean
# Protocol: as §1, §2
# Alternatively, neuropathic pain was induced in rats via chronic constriction injury (CCI) of the left sciatic nerve with the procedure described by Bennett & Xie (Pain 1988; 33(1):87-107). Briefly, under isoflurane anaesthesia, the sciatic nerve was exposed by dissection at the level of the lower thigh and four loose ligatures (USP 4/0, Braun Melsaugen, FRG) were implanted around the nerve—with due attention not to interrupt the epineural circulation. The incision was closed-up using simple suturing, and the rats allowed to recover.
# as §3, §4
structure (smiles),measurement,setting,value
"Cc1cc(O)nc(SCc2c(Cl)ccc(Cl)c2Cl)n1 [6-methyl-2-{[(2,3,6-trichlorophenyl)methyl]sulfanyl}pyrimidin-4-ol]",Protected Animals/tested animals,[1]; 15 minutes post-treatment,1/4
same,Protected Animals/tested animals,[1]; 30 minutes post-treatment,3/4
same,Protected Animals/tested animals,[1]; 60 minutes post-treatment,2/4
same,Protected Animals/tested animals,[1]; 120 minutes post-treatment,1/4
same,Protected Animals/tested animals,[1]; 240 minutes post-treatment,0/4
same,Peak 50% withdrawal threshold,[2],6.24 ± 1.48 g
Cc1cc(O)nc(SCc2nn(C)cc2Cl)n1 [2-{[(4-chloro-1-methyl-1H-pyrazol-3-yl)methyl]sulfanyl}-6-methylpyrimidin-4-ol],Peak paw withdrawal latency,[3],11.98 ± 1.71 s
"CCc1ncsc1CSc1nc(O)cc(C(F)(F)F)n1 [Example 164, 2-{[(4-ethyl-1,3-thiazol-5-yl)methyl]sulfanyl}-6-(trifluoromethyl)pyrimidin-4-ol]",Peak paw withdrawal latency,[3],10.45 ± 0.47 s
"Oc1cc(C(F)(F)F)nc(SCc2c(Cl)cncc2Cl)n1 [2-{[(3,5-dichloropyridin-4-yl)methyl]sulfanyl}-6-(trifluoromethyl)pyrimidin-4-ol]",Peak 50% withdrawal threshold,[2],5.77 ± 1.01 g
same,Peak paw withdrawal latency,[3],11.7 ± 1.43 s
"CCc1cncc(CC)c1CSc1nc(O)cc(C(F)(F)F)n1 [2-{[(3,5-diethylpyridin-4-yl)methyl]sulfanyl}-6-(trifluoromethyl)pyrimidin-4-ol]",Peak 50% withdrawal threshold,[2],6.04 ± 1.17 g
"Cc1cc(O)nc(SCc2c(Cl)cncc2Cl)n1 [2-{[(3,5-dichloropyridin-4-yl)methyl]sulfanyl}-6-methylpyrimidin-4-ol]",Protected Animals/tested animals,[1]; 15 minutes post-treatment,3/4
same,Protected Animals/tested animals,[1]; 30 minutes post-treatment,3/4
same,Protected Animals/tested animals,[1]; 60 minutes post-treatment,3/4
same,Protected Animals/tested animals,[1]; 120 minutes post-treatment,1/4
same,Protected Animals/tested animals,[1]; 240 minutes post-treatment,0/4
same,Peak 50% withdrawal threshold,[2],9.13 ± 1.60 g
same,Peak paw withdrawal latency,[3],14.49 ± 1.24 s
"Cc1cc(O)nc(SCc2c(Cl)ccnc2Cl)n1 [2-{[(2,4-dichloropyridin-3-yl)methyl]sulfanyl}-6-methylpyrimidin-4-ol]",Peak 50% withdrawal threshold,[2],7.74 ± 2.13 g
CCc1ncccc1CSc1nc(C)cc(O)n1 [2-{[(2-ethylpyridin-3-yl)methyl]sulfanyl}-6-methylpyrimidin-4-ol],Peak paw withdrawal latency,[3],10.46 ± 1.16 s
CCc1cncc(Cl)c1CSc1nc(C)cc(O)n1 [2-{[(3-chloro-5-ethylpyridin-4-yl)methyl]sulfanyl}-6-methylpyrimidin-4-ol],Peak 50% withdrawal threshold,[2],8.73 ± 1.75 g
